How the values were obtained:
Format in all cases: cell-based, Human
H460 cells = test: CCK8 cell viability and IC50 measurement, H460; conditions: for Cell viability: H460, 25 μM; for cell proliferation inhibition rate: H460, 72-h treatment; for IC50: H460, 72 h, CCK8
Method: (§1) Human lung cancer cell line H460 and H1299, human liver normal cell line LO2 were bought from ATCC. DMEM or RPMI 1640 was used as the cell culture medium with 10% FBS and 1% penicillin/streptomycin. Cells were maintained in an incubator with 37°C humidified atmosphere and 5% CO2.
(§2) Cell viability and IC50 values were determined using the CCK8 assay kit. Cells were seeded at a density of 5 × 10^3 cells per well in a 96-well plate. After overnight adhesion, 25 μM of compounds or vehicle control DMSO which all dissolved in the culture medium were added to cells and cultured for 48 h or 72 h. CCK8 reagent, dissolved in the medium, was then added to cells and incubated for 1 h. The absorbance at 450 nm was measured using a microplate spectrophotometer (Thermo). Cell viability was calculated, with the untreated group taken as 100%. For IC50 values determination, different concentrations (0, 0.4 μM, 2 μM, 10 μM, 20 μM, 50 μM) of compounds were added to cells for 72 h. Subsequent CCK8 measurement allowed the calculation of inhibition percentage based on cell viability. The IC50 values were computed by the prism statistical software. The CCK-8 assay was conducted three times and the repetitions in each time were at least three. All the values were expressed as Mean ± SD, p < 0.05 was considered statistically significant.
(§3) In order to assess the potential cytotoxicity of the synthesized compounds, we selected two types of human non-small-cell lung cancer cell line, H460 and H1299. Cell viability and cytotoxicity were evaluated using the CCK8 assay ([Xu et al., 2018]). The cells were treated with 25 μM of compounds 5a-5s and 6a-6i for 48h and 72 h. […] In contrast, no compounds managed to reduce H1299 cell viability to less than 50%, yet compounds 5i, 5m, 6h and 6i achieved cell viability rates below 70%. […] It is worth noting that minimal effects on the cell viability of the normal cell line LO2 were observed when exposed to these compounds. Further, we determined the half-maximal inhibitory concentration (IC50) of selected compounds against H460 cells, the results of which were summarized in Table 3.

H1299 cells = test: CCK8 cell viability, H1299; conditions: H1299, 25 μM
Method: as §1, §2, §3

LO2 cells = test: CCK8 cell viability, normal cell line LO2; conditions: LO2 normal liver cells, 25 μM, 72 h
Method: as §1, §2, §3

Row | IC50 (H460 cells) | SMILES | Cell viability (H460 cells; 48 h) | cell proliferation inhibition rate (H460 cells) | Cell viability (H1299 cells; 48 h) | Cell viability (H1299 cells; 72 h) | Cell viability (LO2 cells) | Cell viability (H460 cells; 72 h)
1 | 12.7 ± 4.85 µM | CCc1ccccc1-n1cc(-c2cccc(NC(=O)c3cn4c(c(OC)c3=O)C(=O)N3C(C)COC3C4)c2)nn1 (stereo not shown) [Compound 5d] | 92.17% | exceed 50% | 117.48% | 99.81% | 127.81% | 
2 | 30.5 ± 2.18 µM | COc1c2n(cc(C(=O)Nc3cccc(-c4cn(Cc5ccccc5Br)nn4)c3)c1=O)CC1OCC(C)N1C2=O (stereo not shown) [Compound 6b] | 51.88% | exceed 50% | 104.60% | 101.92% | 126.52% | 
3 |  | COc1c2n(cc(C(=O)Nc3cccc(-c4cn(Cc5ccc(Cl)cc5)nn4)c3)c1=O)CC1OCC(C)N1C2=O (stereo not shown) [Compound 6f] | 91.99% |  | 104.20% | 96.47% | 130.96% | 94.49%
4 |  | COc1c2n(cc(C(=O)Nc3cccc(-c4cn(-c5ccc(C(F)(F)F)cc5)nn4)c3)c1=O)CC1OCC(C)N1C2=O (stereo not shown) [Compound 5j] | 100.66% |  | 96.98% | 92.49% | 108.63% | 111.72%
5 | 31.8 ± 0.47 µM | COc1c2n(cc(C(=O)Nc3cccc(-c4cn(-c5ccccc5C(F)(F)F)nn4)c3)c1=O)CC1OCC(C)N1C2=O (stereo not shown) [Compound 5a] | 87.78% |  | 121.35% | 102.55% | 105.28% | 65.75%
6 |  | COc1c2n(cc(C(=O)Nc3cccc(-c4cn(Cc5cccc(F)c5)nn4)c3)c1=O)CC1OCC(C)N1C2=O (stereo not shown) [Compound 6i] | 97.90% |  | 99.47% |  | 127.14% | 95.51%
7 | 13.4 ± 4.54 µM | COc1c2n(cc(C(=O)Nc3cccc(-c4cn(-c5ccccc5Cl)nn4)c3)c1=O)CC1OCC(C)N1C2=O (stereo not shown) [Compound 5s] | 71.73% | exceed 50% | 127.14% | 97.37% | 122.75% | 
8 |  | COc1c2n(cc(C(=O)Nc3cccc(-c4cn(Cc5ccc(C(F)(F)F)cc5)nn4)c3)c1=O)CC1OCC(C)N1C2=O (stereo not shown) [Compound 6d] | 113.95% |  | 113.99% | 93.95% | 104.58% | 105.14%
9 |  | COc1c2n(cc(C(=O)Nc3cccc(-c4cn(-c5cccc(F)c5)nn4)c3)c1=O)CC1OCC(C)N1C2=O (stereo not shown) [Compound 5f] | 93.31% |  | 114.19% | 100.41% | 130.35% | 100.16%
10 |  | COc1c2n(cc(C(=O)Nc3cccc(-c4cn(-c5cccc(Br)c5)nn4)c3)c1=O)CC1OCC(C)N1C2=O (stereo not shown) [Compound 5r] | 99.03% |  | 117.54% | 89.82% | 127.81% | 107.13%
11 | 15.86 ± 0.09 µM | COc1c2n(cc(C(=O)Nc3cccc(-c4cn(Cc5ccccc5Cl)nn4)c3)c1=O)CC1OCC(C)N1C2=O (stereo not shown) [Compound 6h] |  | exceed 50% | 126.87% |  | 88.86% | 
12 |  | COc1c2n(cc(C(=O)Nc3cccc(-c4cn(-c5ccccc5)nn4)c3)c1=O)CC1OCC(C)N1C2=O (stereo not shown) [Compound 5p] | 88.36% |  | 114.26% | 87.16% | 109.72% | 104.18%
13 |  | COc1c2n(cc(C(=O)Nc3cccc(-c4cn(-c5c(C)cc(C)cc5C)nn4)c3)c1=O)CC1OCC(C)N1C2=O (stereo not shown) [Compound 5l] | 84.74% |  | 118.92% | 91.44% | 125.46% | 98.25%
